Reference: US20210238698A1, “METHODS OF DIAGNOSING AND TREATING CANCER PATIENTS EXPRESSING HIGH LEVELS OF TGF-B RESPONSE SIGNATURE” (MEDPACTO, INC., priority 2018, published 2021)

System: patients with advanced solid tumors
Test: Phase I trial of single administration of Vactosertib, tumor assessment (anti-tumor activity)
Type: in vivo, human
Text: A ‘responder’ refers to a Patient whose best overall response on treatment was stable disease (SD) or greater, and a ‘non-responder’ refers to a patient whose best overall response on treatment was progression on disease (PD) or worse. The unit for all data of gene expression is TPM (Transcripts Per Kilobase Million). The CD8A gene is implicated in playing an important role in the immune response. The cytolytic score is used to assess anticancer immunity. […]
In particular, the F-TBRS and the cytolytic score in cancer of responders and non-responders at the Phase I trial of single administration of Vactosertib (the compound represented by Formula II; TEW-7197) were analyzed and the results were shown in FIG. 3.
In addition, the EMT/F-TBRS expression distribution from the TCGA database of bladder cancer was analyzed and the results are shown in FIG. 4. […]

Cc1cccc(-c2[nH]c(CNc3ccccc3F)nc2-c2ccc3ncnn3c2)n1 [Vactosertib, N-((4-([1,2,4]triazolo[1,5-a]pyridin-6-yl)-5-(6-methylpyridin-2-yl)-1H-imidazol-2-yl)methyl)-2-fluoroaniline]
patients who achieved SD (stable disease, responder) (Phase I, higher doses (≥140 mg, qd)): seven | tumor shrinkage (one patient with bladder cancer at the Phase I trial, high EMT/F-TBRS expression): −25%
